The subject of assay [1] is wt Spinach (87-nt, on chip, with 5' capture tag) (RNA, aptamer) GGGAACACAAUAAUAAAACUUACAAACAAGAAAAAAAAGACGCGACUGAAUGAAAUGGUGAAGGACGGGUCCAGCUGCUUCGGCAGCUUGUUGAGUAGAGUGUGAGCUCCGUAACUAGUCGCGUC
The experiment in a line: on-chip fluorescence titration (mLSI pull-down). As to conditions: 125 mM KCl, 5 mM MgCl2; 40 mM HEPES, 5% DMSO; temperature of this value not stated (19-28°C series); immobilised RNA.

Assay [2] has as its system Spinach with GUGA tetraloop (RNA, aptamer) GGGAACACAAUAAUAAAACUUACAAACAAGAAAAAAAAGACGCGACUGAAUGAAAUGGUGAAGGACGGGUCCAGCUGCGUGAGCAGCUUGUUGAGUAGAGUGUGAGCUCCGUAACUAGUCGCGUC
The experiment in a line: on-chip fluorescence. The following applies: 125 mM KCl, 5 mM MgCl2; loss of fluorescence attributed to misfolding; up to 43.5 μM DFHBI.

For assay [3], the system named is wt Spinach with anchor sequence (in solution) (RNA, aptamer) GGGAACACAAUAAUAAAACUUACAAACAAGAAAAAAAAGACGCGACUGAAUGAAAUGGUGAAGGACGGGUCCAGCUGCUUCGGCAGCUUGUUGAGUAGAGUGUGAGCUCCGUAACUAGUCGCGUC
The experiment in a line: solution binding assay (off chip). The following applies: buffer and temperature not stated.

In assay [4] the test system is Spinach U50C (RNA, aptamer) GGGAACACAAUAAUAAAACUUACAAACAAGAAAAAAAAGACGCGACUGAAUGAAAUGGUGAAGGACGGGUCCAGCUGCUUCGGCAGCCUGUUGAGUAGAGUGUGAGCUCCGUAACUAGUCGCGUC
The experiment in a line: on-chip fluorescence titration (mLSI pull-down). As to conditions: 125 mM KCl, 5 mM MgCl2; 40 mM HEPES, 5% DMSO; temperature of this value not stated; immobilised RNA.

The test system of assay [5] is wt Spinach without anchor sequence (in solution) (RNA, aptamer) GACGCGACUGAAUGAAAUGGUGAAGGACGGGUCCAGCUGCUUCGGCAGCUUGUUGAGUAGAGUGUGAGCUCCGUAACUAGUCGCGUC
The experiment in a line: solution binding assay (off chip). The following applies: buffer and temperature not stated.

Assay [6] has as its system Spinach with GAAA tetraloop (RNA, aptamer) GGGAACACAAUAAUAAAACUUACAAACAAGAAAAAAAAGACGCGACUGAAUGAAAUGGUGAAGGACGGGUCCAGCUGCGAAAGCAGCUUGUUGAGUAGAGUGUGAGCUCCGUAACUAGUCGCGUC
The experiment in a line: on-chip fluorescence titration and melting. The following applies: 125 mM KCl, 5 mM MgCl2; 40 mM HEPES, 5% DMSO; comparable to UUCG loop; immobilised RNA.

In general, Kd refers to the concentration at which binding is half-saturated. High values mean a looser complex, low ones a tighter complex. For `CC1=N/C(=C\c2cc(F)c(O)c(F)c2)C(=O)N1C`, the Kd is 1180 nM in assay [1], 680 nM in assay [3], 450 nM in assay [4] and 530 nM in assay [5]. Further, the results for the binding result in assay [2] and in assay [6] were “no” and “yes”, respectively.

For the origin of these results see paper PMC4627091 (2015).
